In US9707201B2 (Leptrex Ltd, priority 2013, dated 2017):
Entries after “also recorded” stand apart in the source; their conditions may differ.

Assays:
[1] = Thiosulfinate half-life in 100% aqueous garlic extract solution by quantitative HPLC; format: physicochemical; conditions: buffer, 100% aqueous solution, mean (SD), n=3, read-out: Half-Life (hours) at 20° C.
[2] = Thiosulfinate half-life in aqueous ethanol garlic extract solutions by quantitative reverse phase HPLC; format: physicochemical; conditions: buffer, initial allicin 400 ppm, mean (SD), n=3
Experimental: The solutions were prepared from a single stock aqueous garlic extract solution that was diluted with the appropriate volume of ethanol to produce the 25%, 50% and 75% ethanol garlic aqueous extract solutions. The aqueous stock solution of garlic extract assayed by HPLC was determined to have an allicin content of 1600 ppm (1600 mg allicin in 1000 ml water) and each of the 25%, 50% and 75% ethanol:aqueous dilutions prepared from the aqueous garlic extract stock solution were prepared to provide an initial allicin concentration of 400 ppm.
The decomposition profiles of MeS(O)SAll and AllS(O)SMe (the MA-AM mixture collectively referred to as Analogue-1), AllS(O)SAll (Allicin, Analogue-2) and AllS(O)SPn-(E,Z) (Analogue-3) thiosulfinates were then determined by quantitative reverse phase HPLC. The quantitative HPLC procedure involved determining the relative concentrations of each thiosulfinate in the various solutions at the various ageing temperatures as a function of the time that each solution was stored at a carefully controlled temperature. The initial measurement of the concentration value for each thiosulfinate determined immediately after freshly prepared solutions were prepared provides the 100% thiosulfinate concentration value for the start time (time zero) at which the time-lapse thermal decomposition measurements started to commence.
The quantitative HPLC data recorded for the MA-AM mixture (Analogue-1), allicin (Analogue-2) and AllS(O)SPn-(E,Z) (Analogue-3) established that each thiosulfinate was subject to a first-order exponential decay process when the 25%, 50% and 75% aqueous:ethanol garlic extract solutions were stored (aged) through the temperature range 40-20° C. FIGS. 2-4 show exponential decay profiles obtained for MA-AM (Analogue-1), allicin (Analogue-2) and AllS(O)SPn-(E,Z) (Analogue-3)—FIGS. 2-4 produced from data obtained from the HPLC analyses of the same single sample whose solvent composition was ethanol:water (25:75% by volume) with an initial allicin concentration of 400 ppm. The decay profiles were obtained using ORIGIN version 6.1 software (Origin is a registered trade mark of OriginLab Corporation) software that determined the best fit for decomposition profiles as being first-order exponential decay. From the decomposition profiles shown in FIGS. 2-4 it is possible to interpolate to determine the time required for each thiosulfinate to decompose to 50% of its initial concentration level that had been initially measured at the outset when controlled temperature storage started.

[3] = format: physicochemical; conditions: buffer
Experimental: 1. Aqueous solutions were prepared using 70 ml water and 6 g McCormick garlic powder, along with methiin or alliin in the proportions shown in table 37 below. The liquid in the top row was prepared from a blend of the following liquids:
2. All solutions were prepared at a temperature of 21° C. with the garlic powder reaction mixture being stirred for 3 hours. At the end of the 3 hour stirred reaction period, the solutions were filtered and immediately assayed by HPLC for their respective A-1, A-2 and A-4 content. These initial concentration values were considered as Time Zero values. 3. After Time Zero thiosulfinate concentrations had been obtained, the solutions were stored at stable temperatures within accurate temperature regulated ovens. 4. Samples of each temperature stored aqueous solution were withdrawn at appropriate time intervals and assayed by HPLC for A-1, A-2 and A-4 content. The decay of the blended liquid can be seen in FIGS. 64, 65 and 66. […] 5. The decomposition profile graphs for MMTSO, MA-AM and Allicin are shown in FIGS. 67, 68 and 69 respectively. These figures were constructed by expressing their respective HPLC peak area integration values measured at 240 nm as a function of sample storage time to obtain Relative % Concentration values. In all cases the best fit was obtained with MicroCal Origin s/w using a first order exponential decay fit. In FIG. 67, the half-life value was obtained by interpolating the time at which the A-4 (MMTSO) peak provides ½ integral value of that initially obtained for A-4 peak at Time Zero. Half-life for A-4 at 55° C. was determined as 51.1 hrs. Similarly in FIG. 68, the half-life value was obtained by interpolating the time at which A-1 (MA-AM) peak provides ½ integral value of that initially obtained for A-1 peak at Time Zero. Half-life for A-1 was determined as 30.2 hrs. Once again, the half-life value was obtained by interpolating the time at which A-2 (Allicin) peak provides ½ integral value of that initially obtained for A-2 peak at Time Zero. Half-life for A-2 is determined as 9.4 hrs.

[4] = Ageing of aqueous FG + P-1 reaction solution at 40° C., thiosulfinate content by HPLC; format: physicochemical; conditions: for A4 Peak Integration Value × 10^−4: 240 nm
Experimental: Similar studies were conducted with an aqueous solution of analogue 4 (MMTSO) produced by the method of process 6a, as set out in row 4 of table 23.
1. The reaction mixture (12.0 g FG+400 mg P-1+70 ml H2O) was filtered immediately after 4 hour reaction time and served as the stock solution for this study.
2. The filtered solution was divided into 2 portions. One to be stored frozen and the other to be stored at 40° C.
3. The portion of filtered solution to be used to determine the half-life of A4 was placed in a sealed glass bottle that was placed in an oven that provided a stable temperature of 40° C.
4. At irregular intervals a sample of the aqueous solution was withdrawn and analysed by HPLC.
FIGS. 57-60 show the chromatogram obtained after 0, 120, 168 and 672 hours respectively. Their concentrations are set out below in table 32: […]

[5] = tested on: MRSA clinical isolate QMUL301; assay: Standard agar diffusion test, zones of inhibition; format: cell-based, methicillin-resistant Staphylococcus aureus; conditions: for Activity of the solution after storage: aqueous solution stored at 17° C. for 56 days
Experimental: The activity of powders and liquids was determined using standard agar diffusion tests. Susceptibility of isolates by measuring the zones of inhibition around a measured amount of the anti-microbial agent.
Bacteria: MRSA clinical isolate QMUL301 was used. Overnight broth cultures in isosensitest broth were prepared. These were diluted to give a final concentration of 10^5 cfu/ml
Media: Isosensitest agar (Oxoid Ltd).
• A broth containing 10^5 cfu/ml was prepared in peptone water. • 0.2 ml was spread over each isosensitest plate. • Plates were air dried and a 6 mm well cut in the centre of the plate. • A volume of 100 ul of liquid or 100 ug of solid was added to each well. • Plates were incubated overnight at 37° C. • The presence of zones of inhibition around a well is indicative of biological activity being present. No zone around the 6 mm well, (as with the negative control) represented no biological activity.

[6] = tested on: herpes simplex virus types 1 and 2, parainfluenza virus type 3 and rhinovirus type 2; conditions: in vitro, compounds present in garlic extracts; cited from earlier work
Helicobacter pylori = conditions: Canizares et al. 2004; cited from earlier work
[7] = aqueous solution (12.0 g FG + 400 mg P-1 + 70 ml H2O), 0 hours aged at 40° C.
[8] = aqueous solution, 120 hours aged at 40° C.
[9] = aqueous solution, 168 hours aged at 40° C.
[10] = aqueous solution, 672 hours aged at 40° C.
[11] = aqueous solution, 0 hours aged at 40° C.

Work on `C=CC[S+]([O-])SC=CC` (stereo not shown) yielded a half-life ([1]; initial allicin (A-2) concentration 375 ppm) of 140 h, a half-life ([1]; initial allicin (A-2) concentration 1500 ppm) of 77.2 h and a half-life ([2]; 25% EtOH, 20° C.) of 134 h. It also gave a half-life ([2]; 25% EtOH, 25° C.) of 66.1 h, a half-life ([2]; 25% EtOH, 30° C.) of 39.5 h and a half-life ([2]; 25% EtOH, 35° C.) of 25 h. The half-life ([2]; 25% EtOH, 40° C.) was 15.3 h, the half-life ([2]; 50% EtOH, 20° C.) was 203 h and the half-life ([2]; 50% EtOH, 25° C.) was 121 h. It also gave a half-life ([2]; 50% EtOH, 30° C.) of 65.6 h, a half-life ([2]; 50% EtOH, 35° C.) of 28.8 h and a half-life ([2]; 50% EtOH, 40° C.) of 17.3 h. For the same compound, the half-life ([2]; 75% EtOH, 20° C.) was 161 h, the half-life ([2]; 75% EtOH, 25° C.) was 73.4 h and the half-life ([2]; 75% EtOH, 30° C.) was 46.9 h. For the same compound, the half-life ([2]; 75% EtOH, 35° C.) was 30.3 h and the half-life ([2]; 75% EtOH, 40° C.) was 17.6 h.

In the case of “methyl allyl-thiosulfinate (MA) and its structural isomer allyl methyl-thiosulfinate (AM) [Analogue A-1]”, the Half-Life hrs [3] is reported as 30.2 h, the “concentration (ppm)” value [4, 7] is reported as 843 ppm and the “concentration (ppm)” value [4, 8] is reported as 415 ppm. The “concentration (ppm)” value [4, 9] was 314 ppm and the “concentration (ppm)” value [4, 10] was 35 ppm.

With `CS[S+](C)[O-]` (stereo not shown) [Analogue A-4, methyl methyl-thiosulfinate] the Half-Life hrs [3] was 51.1 h, the A-4 ppm ([4]; aqueous solution (Red Spot), stored at 40° C. for 672 hours) was 1597 ppm and the “A4 concentration converted from peak integration value” [4, 11] was “(=2410 ppm)”. For the same compound, the “A4 Peak Integration Value × 10^−4” value [4, 11] was 1153, the “A4 Peak Integration Value × 10^−4” value [4, 8] was 1074 and the “A4 Peak Integration Value × 10^−4” value [4, 9] was 1004. The “A4 Peak Integration Value × 10^−4” value [4, 10] was “(743)”, the “A4 Peak Integration Value × 10^−4” value ([4]; aqueous solution, 672 hours aged at 40° C., listed as A4) was 764 and the “Activity of the solution after storage” value [5] was “remains active”. The “Antimicrobial activity against MRSA” value ([5]; aqueous solutions) was “significant antimicrobial activity; also recorded: at least the same level of antimicrobial activity against MRSA as A-2”.

For “allyl allyl-thiosulfinate [Analogue A-2, reference compound]”, the Half-Life hrs [3] is given as 9.4 h, the “concentration (ppm)” value [4, 7] is given as 47 ppm and the Virucidal activity [6] is given as “possess virucidal activity”. The “Inhibition of the in vitro growth of Helicobacter pylori” value (Helicobacter pylori) was “show inhibition” and the “Activity of the solution after storage” value [5] was “lost all measurable activity”.
